Assay results: patent US11834453B2, “Substituted pyrimido[5,4-d]pyrimidines as HER2 inhibitors” (Array BioPharma Inc., priority 2020, dated 2023)
Like-named read-outs stand apart in the source and are kept apart here.

Legend:
[1] = molecular target: ErbB2 with Exon 20 YVMA insertion (HER2-YVMA) (Homo sapiens (Human), UniProt P04626, INS775YVMA); test: Cellular phosphorylation assay, constitutive ErbB2 phosphorylation (Y1196) in engineered NIH 3T3 cells, Assay 4; assay type: cell-based
How it was run: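 Engineered NIH 3T3 cells expressing HER2-YVMA treated with compounds 1 h at 37 °C, then formaldehyde-fixed and methanol-permeabilized. pErbB2 Y1196 detected by in-cell infrared immunofluorescence, normalized to GAPDH. IC50 from the normalized curves.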

[2] = molecular target: ErbB2 insYVMA (HER2-YVMA, SEQ ID NO: 2) (Homo sapiens, UniProt P04626, INS775YVMA/P1170A); test: biochemical; details: ErbB2 insYVMA enzyme assay
Sequence of ErbB2 insYVMA (HER2-YVMA, SEQ ID NO: 2) (P04626 with tags, fused parts or gaps INS775YVMA/P1170A limits assumed): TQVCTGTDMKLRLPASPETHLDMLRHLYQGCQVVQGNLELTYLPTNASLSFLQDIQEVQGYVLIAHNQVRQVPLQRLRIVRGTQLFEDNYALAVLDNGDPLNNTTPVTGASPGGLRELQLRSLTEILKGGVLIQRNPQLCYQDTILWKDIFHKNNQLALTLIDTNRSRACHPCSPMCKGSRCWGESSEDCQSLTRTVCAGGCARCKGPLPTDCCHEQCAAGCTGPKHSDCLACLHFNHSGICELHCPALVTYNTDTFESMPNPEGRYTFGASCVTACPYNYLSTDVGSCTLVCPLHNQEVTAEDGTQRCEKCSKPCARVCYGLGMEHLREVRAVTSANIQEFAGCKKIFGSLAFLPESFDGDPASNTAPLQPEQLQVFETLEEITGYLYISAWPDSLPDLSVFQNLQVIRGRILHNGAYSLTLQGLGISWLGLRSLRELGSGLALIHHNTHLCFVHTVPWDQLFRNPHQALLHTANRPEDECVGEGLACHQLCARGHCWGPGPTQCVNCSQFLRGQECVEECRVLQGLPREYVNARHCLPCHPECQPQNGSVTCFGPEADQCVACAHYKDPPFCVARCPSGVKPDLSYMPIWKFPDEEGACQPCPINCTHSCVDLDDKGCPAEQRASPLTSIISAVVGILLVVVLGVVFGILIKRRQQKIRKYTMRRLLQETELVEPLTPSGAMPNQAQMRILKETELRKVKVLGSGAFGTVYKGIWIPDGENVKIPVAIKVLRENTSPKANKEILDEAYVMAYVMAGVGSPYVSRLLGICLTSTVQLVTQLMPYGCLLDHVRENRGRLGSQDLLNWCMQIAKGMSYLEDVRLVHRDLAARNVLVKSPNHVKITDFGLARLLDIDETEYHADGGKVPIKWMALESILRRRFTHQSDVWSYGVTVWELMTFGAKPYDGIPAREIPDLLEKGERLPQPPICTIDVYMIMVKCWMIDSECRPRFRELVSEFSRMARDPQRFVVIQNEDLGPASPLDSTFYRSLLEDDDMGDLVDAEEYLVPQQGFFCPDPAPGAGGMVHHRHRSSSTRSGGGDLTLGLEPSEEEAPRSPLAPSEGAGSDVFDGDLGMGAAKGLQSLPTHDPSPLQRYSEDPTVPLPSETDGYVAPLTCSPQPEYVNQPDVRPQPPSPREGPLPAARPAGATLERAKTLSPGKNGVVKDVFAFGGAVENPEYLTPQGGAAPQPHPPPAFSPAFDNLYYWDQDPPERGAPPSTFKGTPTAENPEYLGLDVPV

[3] = molecular target: EGFR (Homo sapiens (Human), UniProt P00533); test: ErbB enzyme assay (CisBio HTRF KinEASE-TK), Assay 3; assay type: biochemical
Sequence of EGFR (P00533 25-1210): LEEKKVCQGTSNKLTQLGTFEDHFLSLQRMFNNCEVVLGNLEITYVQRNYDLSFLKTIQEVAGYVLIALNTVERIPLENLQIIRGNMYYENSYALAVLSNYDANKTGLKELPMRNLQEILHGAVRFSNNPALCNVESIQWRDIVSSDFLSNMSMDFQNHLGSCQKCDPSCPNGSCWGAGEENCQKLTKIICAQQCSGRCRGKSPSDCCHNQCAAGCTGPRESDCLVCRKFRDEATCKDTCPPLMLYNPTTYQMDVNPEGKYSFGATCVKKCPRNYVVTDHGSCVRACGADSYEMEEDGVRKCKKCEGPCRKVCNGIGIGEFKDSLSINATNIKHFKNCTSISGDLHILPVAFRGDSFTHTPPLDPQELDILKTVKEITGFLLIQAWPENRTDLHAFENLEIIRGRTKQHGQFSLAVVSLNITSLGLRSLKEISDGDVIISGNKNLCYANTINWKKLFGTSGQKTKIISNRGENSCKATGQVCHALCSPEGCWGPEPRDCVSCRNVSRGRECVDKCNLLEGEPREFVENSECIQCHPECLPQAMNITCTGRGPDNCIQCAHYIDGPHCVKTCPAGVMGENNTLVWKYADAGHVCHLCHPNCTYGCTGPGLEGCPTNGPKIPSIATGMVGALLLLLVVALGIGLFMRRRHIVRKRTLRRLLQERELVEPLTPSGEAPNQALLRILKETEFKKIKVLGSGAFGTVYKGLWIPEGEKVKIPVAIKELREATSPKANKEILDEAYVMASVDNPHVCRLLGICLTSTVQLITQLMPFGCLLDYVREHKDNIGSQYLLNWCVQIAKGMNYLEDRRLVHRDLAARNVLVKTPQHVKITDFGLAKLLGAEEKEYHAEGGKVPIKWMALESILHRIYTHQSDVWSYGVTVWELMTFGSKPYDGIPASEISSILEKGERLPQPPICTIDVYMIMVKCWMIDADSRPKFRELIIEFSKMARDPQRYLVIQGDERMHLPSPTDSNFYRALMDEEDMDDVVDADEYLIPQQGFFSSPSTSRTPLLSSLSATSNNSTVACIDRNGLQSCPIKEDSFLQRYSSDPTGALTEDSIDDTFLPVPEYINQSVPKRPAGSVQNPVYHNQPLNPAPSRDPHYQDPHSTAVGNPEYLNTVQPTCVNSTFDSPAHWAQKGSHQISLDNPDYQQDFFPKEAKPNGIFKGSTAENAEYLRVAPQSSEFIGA
How it was run: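 Kinase incubated 30 min at 22 °C with 250 nM biotinylated TK substrate, 1 mM ATP and serially diluted compound in 25 mM HEPES pH 7.4, 10 mM MgCl2, 0.01% Triton X-100, 2% DMSO. Phosphorylation read by HTRF (Sa-XL665/TK-Ab-Cryptate); IC50 from 4-parameter fit of percent of control.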

[4] = molecular target: ErbB2 WT (Homo sapiens (Human), UniProt P04626); test: ErbB enzyme assay (CisBio HTRF KinEASE-TK), Assay 2; assay type: biochemical
How it was run: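 ErbB2 phosphorylates 250 nM biotin-TK substrate at 1 mM ATP in 25 mM HEPES pH 7.4, 10 mM MgCl2, 0.01% Triton X-100 and 2% DMSO, for 30 min at 22 °C. Product is detected by HTRF with Sa-XL665 and TK-Ab-Cryptate. Percent of control is set by DMSO-only wells and pre-quenched wells.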

[5] = molecular target: MDR1 (P-gp) (Homo sapiens (Human), UniProt P08183); test: MDR1 transfected MDCKII canine Mdr1 knockout permeability/efflux, Assay 7; details: for efflux ratio at 2 h, 1 μM: dog, MDCK-MDR1
[6] = molecular target: BCRP (Homo sapiens (Human), UniProt Q9UNQ0); test: BCRP transfected MDCKII canine Mdr1 knockout permeability/efflux, Assay 9; details: for efflux ratio at 2 h, 1 μM: dog
Description: BCRP transfected MDCKII cells (Assay 8) and BCRP transfected MDCKII canine Mdr1 knockout cells (Assay 9) were cultured and plated according to manufacturer's recommendations.
Both positive and negative controls were used to assess functionality of P-gp or BCRP efflux in the assays. Stock solutions for assay controls and the test article were prepared in DMSO for final test concentration of 1 μM. Final organic concentration in the assay was 1%. All dosing solutions contained 10 μM lucifer yellow to monitor MDCKII cell monolayer integrity.
For the apical to basolateral determination (A to B), 75 μL of the test article in transport buffer were added to the apical side of the individual transwells and 250 μL of basolateral media, without compound or lucifer yellow, were added to each well. For the basolateral to apical determination (B to A), 250 μL of test article in transport buffer were added to each well and 75 μL transport buffer, without compound or lucifer yellow, were added to each transwell. All tests were performed in triplicate, and each compound was tested for both apical to basolateral and basolateral to apical transport. The plates were incubated for 2 hours on a Lab-Line Instruments Titer Orbital Shaker (VWR, West Chester, PA) at 50 rpm and 37° C. with 5% CO2. All culture plates were removed from the incubator, 50 μL of media were removed from the apical and basolateral portion of each well, and added to 150 μL of 1 μM labetalol in 2:1 acetonitrile (ACN): H2O, v/v.
The plates were read using a Molecular Devices (Sunnyvale, CA) Gemini Fluorometer to evaluate the lucifer yellow concentrations at excitation/emission wavelengths of 425/535 nm. […] The plates were sealed, and the contents of each well analyzed by LC MS/MS. The compound concentrations were determined from the ratio of the peak areas of the compound to the internal standard (labetalol) in comparison to the dosing solution.
A MDS Sciex API 4000 (Applied Biosystems, Foster City, CA) mass spectrometer was used for detection of the analytes in the ion spray positive mode. Analyte responses were measured by multiple reaction monitoring (“MRM”) of transitions unique to each compound (the protonated precursor ion and selected product ions for each test article and m/z 329 to m/z 162 for labetalol, the internal standard.
The total run time, including re-equilibration, for a single injection was 1.2 minutes. […] The total run time, including re-equilibration, for a single injection was 0.61 minutes.
An efflux ratio is calculated from the mean apical to basolateral (A-B) Papp data and basolateral to apical (B-A) Papp data: Efflux ratio=Papp(B−A)/Papp(A−B)

[7] = molecular target: EGFR wild type (EGFR WT) (Homo sapiens (Human), UniProt P00533); test: Cellular phosphorylation assay, EGF-stimulated EGFR phosphorylation in engineered NIH 3T3 cells, Phospho-EGFR DuoSet IC ELISA, Assay 5; assay type: cell-based
Sequence of EGFR wild type (EGFR WT) (P00533 25-1210): as above
How it was run: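 NIH 3T3 cells expressing EGFR WT (20,000/well, attached overnight) were exposed to serially diluted compound for 1 h at 37 °C, then stimulated with 100 ng/ml rEGF for 10 min. Phospho-EGFR in lysates measured by sandwich ELISA optical density; IC50 from curves.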

[8] = Assay 9 Pe Ratio, efflux ratio Papp(B-A)/Papp(A-B), BCRP transfected MDCKII canine Mdr1 knockout

Sequence of ErbB2 with Exon 20 YVMA insertion (HER2-YVMA) (P04626 other isoform, or with tags, fused parts or gaps ins YVMA behind 775): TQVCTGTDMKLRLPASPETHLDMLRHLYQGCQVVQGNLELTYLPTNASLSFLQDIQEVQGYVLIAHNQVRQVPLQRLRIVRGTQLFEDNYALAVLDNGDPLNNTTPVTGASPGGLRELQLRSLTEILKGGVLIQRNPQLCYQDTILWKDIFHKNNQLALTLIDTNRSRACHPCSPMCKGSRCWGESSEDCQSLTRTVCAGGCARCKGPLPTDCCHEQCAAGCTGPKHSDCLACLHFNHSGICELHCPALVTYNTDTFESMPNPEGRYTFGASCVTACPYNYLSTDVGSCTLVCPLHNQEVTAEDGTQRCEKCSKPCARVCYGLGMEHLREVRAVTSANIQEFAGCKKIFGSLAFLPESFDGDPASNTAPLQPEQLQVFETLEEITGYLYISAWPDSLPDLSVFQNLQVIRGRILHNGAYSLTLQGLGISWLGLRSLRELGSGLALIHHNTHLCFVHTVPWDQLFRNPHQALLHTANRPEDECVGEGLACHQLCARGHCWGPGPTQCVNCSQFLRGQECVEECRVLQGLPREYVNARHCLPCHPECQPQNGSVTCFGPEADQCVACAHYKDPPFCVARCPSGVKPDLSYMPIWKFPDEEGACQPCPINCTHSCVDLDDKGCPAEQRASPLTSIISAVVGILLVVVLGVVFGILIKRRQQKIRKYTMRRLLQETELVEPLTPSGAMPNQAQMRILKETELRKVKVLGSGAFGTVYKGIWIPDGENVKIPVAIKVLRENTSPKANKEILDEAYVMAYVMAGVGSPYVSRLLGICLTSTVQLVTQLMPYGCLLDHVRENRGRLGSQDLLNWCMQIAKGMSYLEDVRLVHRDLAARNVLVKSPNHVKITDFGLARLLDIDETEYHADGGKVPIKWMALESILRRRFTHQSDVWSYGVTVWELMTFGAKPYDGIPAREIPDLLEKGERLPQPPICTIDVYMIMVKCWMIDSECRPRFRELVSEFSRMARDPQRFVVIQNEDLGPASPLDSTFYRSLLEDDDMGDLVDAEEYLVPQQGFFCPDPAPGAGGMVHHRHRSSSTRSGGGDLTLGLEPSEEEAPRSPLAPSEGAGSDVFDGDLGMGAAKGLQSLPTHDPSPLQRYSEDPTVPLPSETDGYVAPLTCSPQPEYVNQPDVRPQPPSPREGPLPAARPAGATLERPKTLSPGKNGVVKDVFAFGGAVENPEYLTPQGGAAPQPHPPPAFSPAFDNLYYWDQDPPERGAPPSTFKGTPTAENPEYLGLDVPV

Structure (SMILES)	IC50 [1] [nM]	IC50 ([2]; read-out: Assay 1 IC50) [nM]	IC50 [3] [nM]	IC50 [4] [nM]	efflux ratio at 2 h, 1 μM [5]	efflux ratio at 2 h, 1 μM [6, 8]	IC50 [7] [nM]	efflux ratio at 2 h, 1 μM [6]	IC50 ([2]; Assay 1 IC50 (nM)) [nM]	Assay 7 Pe Ratio ([5]; efflux ratio Papp(B-A)/Papp(A-B), MDR1 transfected MDCKII canine Mdr1 knockout)	Assay 9 Pe Ratio ([6]; efflux ratio Papp(B-A)/Papp(A-B), BCRP transfected MDCKII canine Mdr1 knockout)
Cc1cc(Nc2ncnc3cnc(N(C)[C@@H]4CCOC4)nc23)ccc1Oc1ccc2c(c1)ncn2C [Example 128, (R)—N2-methyl-N8-(3-methyl-4-((1-methyl-1H-benzo[d]imidazol-5-yl)oxy)phenyl)-N2-(tetrahydrofuran-3-yl)pyrimido[5,4-d]pyrimidine-2,8-diamine]	36.3	21	3270	20	1.6	1.4	≥ 5000	–	–	–	–
Cc1cc(Nc2ncnc3cnc(N4CCC5COCC54)nc23)ccc1Oc1ccc2c(c1)ncn2C (stereo not shown) [Example 129, 6-(hexahydro-1H-furo[3,4-b]pyrrol-1-yl)-N-(3-methyl-4-((1-methyl-1H-benzo[d]imidazol-5-yl)oxy)phenyl)pyrimido[5,4-d]pyrimidin-4-amine]	7.6	12.4	865	15	1.4	1.7	≥ 5000	–	–	–	–
FC(F)(F)[C@@H]1CN(c2ncc3ncnc(Nc4ccc(Oc5ccn6ncnc6c5)c(Cl)c4)c3n2)CCN1 [Example 130, (S)—N-(4-([1,2,4]triazolo[1,5-a]pyridin-7-yloxy)-3-chlorophenyl)-6-(3-(trifluoromethyl)piperazin-1-yl)pyrimido[5,4-d]pyrimidin-4-amine]	43.3	41.7	2560	36.3	1.3	1	≥ 5000	–	–	–	–
Cc1cc(Nc2ncnc3cnc(N(C)[C@H]4CCOC4)nc23)ccc1Oc1ccc2c(c1)ncn2C [Example 131, (S)—N2-methyl-N8-(3-methyl-4-((1-methyl-1H-benzo[d]imidazol-5-yl)oxy)phenyl)-N2-(tetrahydrofuran-3-yl)pyrimido[5,4-d]pyrimidine-2,8-diamine]	36.3	21	3270	20	1.6	1.4	≥ 5000	–	–	–	–
Clc1cc(Nc2ncnc3cnc(N4CCC45COC5)nc23)ccc1Oc1ccn2ncnc2c1 [Example 132, N-(4-([1,2,4]triazolo[1,5-a]pyridin-7-yloxy)-3-chlorophenyl)-6-(6-oxa-1-azaspiro[3.3]heptan-1-yl)pyrimido[5,4-d]pyrimidin-4-amine]	19.9	5.8	801	5.6	1.1	–	≥ 5000	1.8	–	–	–
Cn1cnc2cc(Oc3ccc(Nc4ncnc5cnc(N6CCC67COC7)nc45)cc3Cl)ccc21.O=C(O)C(F)(F)F [Example 145, N-(3-chloro-4-((1-methyl-1H-benzo[d]imidazol-5-yl)oxy)phenyl)-6-(6-oxa-1-azaspiro[3.3]heptan-1-yl)pyrimido[5,4-d]pyrimidin-4-amine]	20.2	–	896	19.6	0.7	–	≥ 5000	2.1	19.3	–	–
Cn1cnc2cc(Oc3ccc(Nc4ncnc5cnc(N6CCN[C@@H](C(F)(F)F)C6)nc45)cc3Cl)ccc21.O=C(O)C(F)(F)F [Example 146, (R)—N-(3-chloro-4-((1-methyl-1H-benzo[d]imidazol-5-yl)oxy)phenyl)-6-(3-(trifluoromethyl)piperazin-1-yl)pyrimido[5,4-d]pyrimidin-4-amine 2,2,2-trifluoroacetate]	35.5	–	3720	58.2	0.8	–	≥ 5000	5.1	54.1	–	–
Cc1c(Oc2ccc3c(c2)ncn3C)ccc(Nc2ncnc3cnc(N4CCC[C@](C)(O)C4)nc23)c1F [Example 147, (S)-1-(8-((2-fluoro-3-methyl-4-((1-methyl-1H-benzo[d]imidazol-5-yl)oxy)phenyl)amino)pyrimido[5,4-d]pyrimidin-2-yl)-3-methylpiperidin-3-ol]	32.6	74.2	2650	45.5	1	2.7	≥ 5000	–	–	–	–
Cc1cc(Nc2ncnc3cnc(N(C)C4CCOCC4)nc23)ccc1Oc1ccc2c(c1)ncn2C [Example 153, N2-methyl-N8-(3-methyl-4-((1-methyl-1H-benzo[d]imidazol-5-yl)oxy)phenyl)-N2-(tetrahydro-2H-pyran-4-yl)pyrimido[5,4-d]pyrimidine-2,8-diamine]	25	7.6	5550	16.3	1.5	1.4	≥ 5000	–	–	–	–
Cc1cc(Nc2ncnc3cnc(N4CC[C@@](C)(O)C4)nc23)ccc1Oc1ccc2c(c1)ncn2C [Example 154, (R)-3-methyl-1-(8-((3-methyl-4-((1-methyl-1H-benzo[d]imidazol-5-yl)oxy)phenyl)amino)pyrimido[5,4-d]pyrimidin-2-yl)pyrrolidin-3-ol]	15.7	10.3	1940	8	2.1	34	≥ 5000	–	–	–	–
Cc1cc(Nc2ncnc3cnc(N4CC5(C4)CC(C)(O)C5)nc23)ccc1Oc1ccc2c(c1)ncn2C [Example 156, 6-methyl-2-(8-((3-methyl-4-((1-methyl-1H-benzo[d]imidazol-5-yl)oxy)phenyl)amino)pyrimido[5,4-d]pyrimidin-2-yl)-2-azaspiro[3.3]heptan-6-ol]	12.3	6.4	≥ 10000	5.2	2	–	≥ 5000	26	–	–	–
Cc1cc(Nc2ncnc3cnc(N4C[C@H]5C[C@@H]4C[C@@H]5O)nc23)ccc1Oc1ccc2c(c1)ncn2C [Example 157, (1R,4R,5S)-2-(8-((3-methyl-4-((1-methyl-1H-benzo[d]imidazol-5-yl)oxy)phenyl)amino)pyrimido[5,4-d]pyrimidin-2-yl)-2-azabicyclo[2.2.1]heptan-5-ol]	27.8	33.5	≥ 10000	56.8	–	–	≥ 5000	–	–	2.1	21.0
Cc1cc(Nc2ncnc3cnc(N4CC5CC5(O)C4)nc23)ccc1Oc1ccc2c(c1)ncn2C (stereo not shown) [Example 158, 3-(8-((3-methyl-4-((1-methyl-1H-benzo[d]imidazol-5-yl)oxy)phenyl)amino)pyrimido[5,4-d]pyrimidin-2-yl)-3-azabicyclo[3.1.0]hexan-1-ol]	9.8	29.4	≥ 10000	58.2	1.9	33.8	≥ 5000	–	–	–	–
Cc1cc(Nc2ncnc3cnc(N4CCN(C5COC5)CC4)nc23)ccc1Oc1ccc2c(c1)ncn2C [Example 159, N-(3-methyl-4-((1-methyl-1H-benzo[d]imidazol-5-yl)oxy)phenyl)-6-(4-(oxetan-3-yl)piperazin-1-yl)pyrimido[5,4-d]pyrimidin-4-amine]	17	28.7	7370	40.7	2.1	9.6	≥ 5000	–	–	–	–
Cc1cc(Nc2ncnc3cnc(N4CCC(O)(C(F)F)CC4)nc23)ccc1Oc1ccc2c(c1)ncn2C [Example 168, 4-(difluoromethyl)-1-(8-((3-methyl-4-((1-methyl-1H-benzo[d]imidazol-5-yl)oxy)phenyl)amino)pyrimido[5,4-d]pyrimidin-2-yl)piperidin-4-ol]	6.5	39.1	3680	113	2	16.7	≥ 5000	–	–	–	–
Cc1cc(Nc2ncnc3cnc(N4C[C@H](O)C(F)(F)C4)nc23)ccc1Oc1ccc2c(c1)ncn2C [Example 170, (S)-4,4-difluoro-1-(8-((3-methyl-4-((1-methyl-1H-benzo[d]imidazol-5-yl)oxy)phenyl)amino)pyrimido[5,4-d]pyrimidin-2-yl)pyrrolidin-3-ol]	3.4	20.1	≥ 10000	28.6	2.1	36	≥ 5000	–	–	–	–
